Laboratory results as given in patent US10184118B2, “Cytochrome P450S and uses thereof” (University of Kentucky Research Foundation, priority 2001, dated 2019).
Where two headings read alike, the source gives them in different places.

Legend:
[1] = biological target: T1, 5-epi-aristolochene synthase (EAS) (Nicotiana tabacum, UniProt Q40577); assay: In vitro activity of purified recombinant EAS with inhibitors; assay type: biochemical
T1 construct: made in house
T1 sequence (Q40577 1-548): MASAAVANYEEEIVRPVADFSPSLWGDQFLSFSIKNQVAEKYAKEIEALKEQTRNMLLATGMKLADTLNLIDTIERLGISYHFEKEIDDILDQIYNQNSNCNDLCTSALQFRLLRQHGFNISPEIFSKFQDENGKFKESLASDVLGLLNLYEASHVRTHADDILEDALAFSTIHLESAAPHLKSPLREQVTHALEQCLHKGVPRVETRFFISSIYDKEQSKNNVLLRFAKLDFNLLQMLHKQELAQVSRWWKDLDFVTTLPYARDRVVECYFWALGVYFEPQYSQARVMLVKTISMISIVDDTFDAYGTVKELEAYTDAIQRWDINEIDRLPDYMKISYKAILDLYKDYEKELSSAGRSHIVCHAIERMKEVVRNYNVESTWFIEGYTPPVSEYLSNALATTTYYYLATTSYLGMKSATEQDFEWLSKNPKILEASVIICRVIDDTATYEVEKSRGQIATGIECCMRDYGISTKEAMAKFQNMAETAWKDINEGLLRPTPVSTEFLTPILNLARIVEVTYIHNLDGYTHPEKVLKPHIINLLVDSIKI
Method: The in vitro activity of a purified EAS preparation (Back and Chappell, J. Biol. Chem. 270:7375-7381, 1995) was also measured at the indicated inhibitor concentrations as an additional test for non-specific effects of these inhibitors (circles).

[2] = tested on: induction of EAS in elicitor-treated cell cultures; assay: Inducible sesquiterpene cyclase (EAS) activity in extracts of elicitor-treated cells; assay type: cell-based, Nicotiana tabacum; conditions: 12 h with cellulase
[3] = tested on: 5-epi-aristolochene hydroxylase (5EAH)
Method: (§1) The hexane solvent was removed under a gentle stream of N2 gas, and the dried residue was re-dissolved in acetone. […] Detection and quantification of capsidiol in the extracellular culture media was performed as reported previously (Chappell et al., Phytochemistry 26:2259-2260, 1987), and the amount of radioactivity incorporated into capsidiol was determined. For these determinations, samples were separated by TLC, and the zones corresponding to capsidiol were scraped from the plate for scintillation counting.
(§2) Inhibition studies were performed by the addition of the P450 inhibitors ancymidol (Coolbaugh et al., Plant Physiol. 62:571-576, 1978; Hoshino et al., Phytochemistry 38:609-613, 1995) and ketoconazole (Hoshino et al., Phytochemistry 38:609-613, 1995; Rademacher, Annu. Rev. Plant Physiol. Plant Mol. Biol. 51:501-531, 2000) directly to the cell cultures or enzyme assay mix. […] After a further 3 hour incubation period, the cells and media were collected. The amount of radioactivity incorporated into extracellular capsidiol was determined as described above. To evaluate secondary effects of these inhibitors, the level of inducible sesquiterpene cyclase activity in the collected cells was determined according to Vogeli et al. (Plant Physiol. 93:182-187, 1990), as well as in vitro assays with purified recombinant EAS (Back et al., Arch. Biochem. Biophys. 315:527-532, 1994) incubated with the indicated concentrations of ancymidol and ketoconazole.

[4] = tested on: 3-hydroxylase (5-epi-aristolochene to 1-deoxycapsidiol); conditions: cited from earlier work
[5] = tested on: 5-epi-aristolochene hydroxylase (5EAH); assay: In vivo 5-epi-aristolochene hydroxylase assay in elicitor-treated tobacco cell suspension cultures; conditions: Nicotiana tabacum, read-out: inhibition of apparent activity of 5EAH
Method: as §1, §2

[6] = tested on: CYP71D20; conditions: 20 to 50 μM substrate, 2 mM NADPH, 1 mg/mL microsomal protein, 30° C.
Method: Reactions were carried out in 100 mM Tris-HCl, pH 7.5, to which microsomal protein was added to a final concentration of 1 mg/mL. Reactions were initiated by the addition of 2 mM NADPH. […] After incubations for variable lengths of time at 30° C., the reactions were extracted with two volumes of ethyl acetate. […] GC analysis was routinely performed with an HP5890 GC equipped with a Hewlett-Packard HP-5 capillary column (30 m×0.25 mm, 0.25 μm phase thickness) and FID as described previously (Rising et al., J. Am. Chem. Soc. 122:1861-1866, 2000). GC-MS analysis was performed at the University of Kentucky Mass Spectrometry Facility using a Varian 3400 gas chromatograph and a Finnigan INCOS 50 quadrupole mass selective detector. The GC was equipped with a J&W DB-5 ms capillary column (15 m×0.25 mm, 0.25 μm phase thickness) and run with He as the carrier gas (10 psi.). Splitless injections were done at an injection port temperature of 280° C. The column temperature was maintained at 40° C. for 1 minute and then increased to 280° C. at 10° C. per minute. Following separation by the GC column, samples were introduced directly into the electron impact ionization source. Mass spectra were acquired at 70 eV, scanning from 40-440 Da in 1 second.

[7] = concentrations as high as 100 μM
[8] = microsomes incubated with 5-epi-aristolochene

## COc1ccc(C(O)(c2cncnc2)C2CC2)cc1 (stereo not shown) [ancymidol]
[1]; [7]
  effect on in vitro activity of recombinant EAS: neither the in vitro activity of recombinant EAS nor the induction of EAS in the elicitor-treated cell cultures was significantly affected
[2]; [7]
  effect on induction of EAS in elicitor-treated cell cultures: neither the in vitro activity of recombinant EAS nor the induction of EAS in the elicitor-treated cell cultures was significantly affected
[3]; 25 µM
  inhibition: ~50%
[4]; [8]
  effect on 1-deoxycapsidiol accumulation in vitro: arrested
[5]
  inhibition at 75 µM: > 80%

## CC(=O)N1CCN(c2ccc(OCC3COC(Cn4ccnc4)(c4ccc(Cl)cc4Cl)O3)cc2)CC1 (stereo not shown) [ketoconazole]
[1]; indicated inhibitor concentrations (FIG. 3B)
  effect on in vitro activity of EAS: does not appear to affect
[2]
  concentration at which inducibility of cyclase activity in elicitor-treated cell extracts was inhibited: above 50 μM
[3]; 25 µM
  inhibition: ~50%
[3]; 100 µM
  inhibition: 95%
[4]
  effect on 1-deoxycapsidiol accumulation in vitro: arrested

## C=C(C)[C@@H]1CC=C2CC[C@@H](O)[C@@H](C)[C@@]2(C)C1 [1-deoxycapsidiol]
[6]
  metabolism by CYP71D20 microsomes (GC, GC-MS of products): metabolized to only one product with the same retention time as capsidiol

## C=C(C)[C@@H]1CC=C2CCC[C@@H](C)[C@@]2(C)C1 [5-epi-aristolochene]
[6]
  metabolism by CYP71D20 microsomes (GC, GC-MS of products): metabolized to only one product with the same retention time as capsidiol

## [C-]#[O+] [carbon monoxide]
[4]; [8]
  effect on 1-deoxycapsidiol accumulation in vitro: arrested
